Assay [1] has as its system T. gondii tachyzoites (RH-YFP strain). Description: In vitro challenge assay for Toxoplasma tachyzoites (RH-YFP in HFF, fluorescence). The assay is classed as cell-based, Toxoplasma gondii. The note with it: Toxoplasma gondii; RH-YFP; read-out: Tachy IC50. As for the experimental part:
Human foreskin fibroblasts (HFF) were cultured on a flat, clear-bottomed, black 96-well plate to 90% to 100% confluence. IMDM (1×, [+] glutamine, [+] 25 mM HEPES, [+] Phenol red, 10% FBS [gibco, Denmark]) was removed from each well and replaced with IMDM-C (1×, [+] glutamine, [+] 25 mM HEPES, [−] Phenol red, 10% FBS)[Gibco, Denmark]). Type I RH parasites expressing Yellow Fluorescent Protein (RH-YFP) were lysed from host cells by double passage through a 27-gauge needle. Parasites were counted and diluted to 32,000/mL in IMDM-C. Fibroblast cultures were infected with 3200 tachyzoites of the Type I RH-YFP strain and returned to incubator at 37° C. for 1-2 hours to allow for infection. Diluted solutions of the compounds were made using IMDM-C, and 20 μl were added to each designated well, with triplicates for each condition. Controls included pyrimethamine/sulfadiazine (current standard of treatment), DMSO only, fibroblast only, and an untreated YFP gradient with 2 fold dilutions of the parasite. Cells were incubated at 37° C. for 72 hours. The plates were read using a fluorimeter (Synergy H4 Hybrid Reader, BioTek) To ascertain the amount of yellow fluorescent protein, in relative fluorescence units (RFU), as a measure of parasite burden after treatment. Compounds were not considered effective or pursued for further analysis if there were no signs of inhibition at 1 μM. Data was collected using Gen5 software and analyzed with Excel.
Protocol adapted from Fomovska, et. al. (18,19). Human foreskin fibroblasts (HFF) were cultured on a flat, clear-bottomed, black 96-well plate to 90% to 100% confluence. IMDM (1×, [+] glutamine, [+] 25 mM HEPES, [+] Phenol red, 10% FBS [gibco, Denmark]) was removed from each well and replaced with IMDM-C (1×, [+] glutamine, [+] 25 mM HEPES, [−] Phenol red, 10% FBS)[gibco, Denmark]). Type I RH parasites expressing Yellow Fluorescent Protein (RH-YFP) were lysed from host cells by double passage through a 27-gauge needle. Parasites were counted and diluted to 32,000/mL in IMDM-C. Fibroblast cultures were infected with 3200 tachyzoites of the Type I RH strain expressing Yellow Fluorescent Protein (RH-YFP) and returned to incubator at 37° C. for 1-2 hours to allow for infection (15). Various concentrations of the compounds were made using IMDM-C, and 20 μl were added to each designated well, with triplicates for each condition. Controls included pyrimethamine/sulfadiazine (current standard of treatment), 0.1% DMSO only, fibroblast only, and an untreated YFP gradient with 2 fold dilutions of the parasite. Cells were incubated at 37° C. for 72 hours. Plates were read using a fluorimeter (Synergy H4 Hybrid Reader, BioTek) to ascertain the amount of yellow fluorescent protein, in relative fluorescence units (RFU), as a measure of parasite burden after treatment. Data was collected using Gen5 software. IC50 was calculated by graphical analysis in Excel.
An initial screening assay of 10 μM, 1 μM, 100 nM, and 10 nM was performed. Compounds were not considered effective or pursued for further analysis if there were no signs of inhibition of tachyzoites at 1 μM. If compounds did appear to be effective at 1 μM, another experiment was conducted to assess effect at 1 μM, 500 nM, 250 nM, 125 nM, 62.5 nM, and 31.25 nM.
Protocol adapted from Fomovska, et. al. (Fomovska A, Huang Q, El Bissati K, Mui E J, Witola W H, Cheng G, et al. Novel N-Benzoyl-2-Hydroxybenzamide Disrupts Unique Parasite Secretory Pathway. Antimicrob Agents Chemother [Internet]. 2012 May [cited 2015 Jul. 8]; 56(5):2666-82; Fomovska A, Wood R D, Mui E, Dubey J P, Ferreira L R, Hickman M R, et al. Salicylanilide inhibitors of Toxoplasma gondii. J Med Chem. 2012 Oct. 11; 55(19):8375-91.). Human foreskin fibroblasts (HFF) were cultured on a flat, clear-bottomed, black 96-well plate to 90% to 100% confluence. […]

The test system of assay [2] is P. falciparum strains D6, TM91-C235, W2, C2B. Put plainly: Malaria SYBR Green I-Based Fluorescence (MSF) Assay. The assay is classed as cell-based, Plasmodium falciparum. How it is done:
Testing of P. falciparum: D6 is a drug sensitive strain from Sierra Leone, C235 is a multi-drug resistant strain from Thailand, W2 is a chloroquine resistant strain from Thailand, and C2B has resistance to a variety of drugs including atovaquone.
D6 is a drug sensitive strain from Sierra Leone, C235 is a multi-drug resistant strain from Thailand, W2 is a chloroquine resistant strain from Thailand, and C2B has resistance to a variety of drugs including atovaquone. These assays were performed as described.
(§1) Compound activity against P. falciparum, a causative agent of malaria, was tested using the Malaria SYBR Green I—Based Fluorescence (MSF) Assay. This; microtiter plate drug sensitivity assay uses the presence of malarial DNA as a measure of parasitic proliferation in the presence of antimalarial drugs or experimental compounds based on modifications of previously described methods by Plouffe et al (20) and Johnson et al. As the intercalation of SYBR Green I dye and its resulting fluorescence is relative to parasite growth, a test compound that inhibits the growth of the parasite will result in a lower fluorescence.
Selected compounds were examined for activity against four strains of P. falciparum: D6 (CDC/Sierra Leone), a drug-sensitive strain readily killed by chloroquine, TM91-C235, a multi-drug resistant strain resistant to chloroquine, W2, a chloroquine resistant strain from Thailand, and C2B has resistance to a variety of drugs including atovaquone.
D6 is a drug sensitive strain from Sierra Leone, C235 is a multi-drug resistant strain from Thailand, W2 is a chloroquine resistant strain from Thailand, and C2B has resistance to a variety of drugs including atovaquone. These assays were performed using standard protocols.
as §1, with “known in the art.” for “by Plouffe et al (20) and Johnson et al.”, “fluorescence. Selected compounds were examined for activity against four strains of P. falciparum: D6 (CDC/Sierra Leone), a drugsensitive strain readily killed by chloroquine, TM91-C235, a multi-drug resistant strain resistant to chloroquine, W2, a chloroquine resistant strain from Thailand, and C2B has resistance to a variety of drugs including atovaquone.” for “fluorescence.”

The mark [3] stands for this setting: Plasmodium falciparum, D6 strain, read-out: Pf D6 IC50.
[4] abbreviates: Plasmodium falciparum, C2B strain, read-out: SYBR Green C2B IC50.
[5] abbreviates: Plasmodium falciparum, D6 strain, read-out: SYBR Green D6 IC50.
Setting [6] is: Plasmodium falciparum, TM91C235 strain, read-out: SYBR Green C235 IC50.
[7] abbreviates: Plasmodium falciparum, W2 strain, read-out: SYBR Green W2 IC50.

Read-outs that look alike come from different tables or passages of the source.

In general, IC50 refers to the concentration that inhibits the measured activity by half. Regarding `Cc1[nH]c2c(c(=O)c1-c1ccc(Oc3ccc(OC(F)(F)F)cc3)cc1)CCC(C)C2` (stereo not drawn) [JAG107, 3(4-(4-Trifluoromethoxyphenoxy)phenyl)-2,7-dimethyl-5,6,7,8-tetrahydroquinolin-4(1H)-one], the IC50 in assay [1] was found to be 1000 nM. Take `O=c1[nH]c2c(c(=O)n1-c1ccc(Oc3ccccc3)cc1)CCCC2` [JAG095, 3-(4-Phenonxyphenyl)-1,2,3,4,5,6,7,8-octahydroquinazoline-2,4,dione]: the IC50 in assay [1] is over 10000 nM. For `Cc1[nH]c2c(c(=O)c1-c1ccc(Oc3cccc(OC(F)(F)F)c3)cc1)CCCC2` [AS006/ JAG143, 2-methyl-3-(4 (3-(trifluoromethoxy)phenoxy)phenyl)-5,6,7,8-tetrahydroquinolin-4(1H)-one], the IC50 in assay [1] is 60 to 80 nM. `Cc1[nH]c2c(c(=O)c1-c1ccc(Oc3cc(Cl)cc(Cl)c3)cc1)CCCC2` [AS022, 3-[4-(3,5-dichlorophenoxy)phenyl]-2-methyl-5,6,7,8-tetrahydro-1H-quinolin-4(1H)-one]: the IC50 in assay [1] lay within 20 to 40 nM.

As for `Cc1[nH]c2c(c(=O)c1-c1ccc(Oc3ccc(C(=O)O)cc3)cc1)CCCC2` [JAG046, 4-(4-(2-methyl-4-oxo-1,4,5,6,7,8-hexahydroquinolin-3-yl)phenoxy)benzoic acid], the IC50 in assay [2] (setting [3]) was determined as 6720 nM. Take `Cc1[nH]c2c(c(=O)c1-c1ccc(Oc3cccc(F)c3)cc1)CCCC2` [JAG069, 3-(4-(3-Fluorophenoxy)phenyl)-2-methyl-5,6,7,8-tetrahydroquinolin-4(1H)-one]: the 50% inhibitory concentration (IC50) in assay [1] came out at 20 nM. As to `Cc1[nH]c2c(c(=O)c1-c1ccc(Oc3ccc(F)c(Cl)c3)cc1)CCCC2` [AS021/ JAG145, 3-[4-(3-chloro-4-fluorophenoxy)phenyl]-2-methyl-5,6,7,8-tetrahydro-1H-quinolin-4-one], the IC50 in assay [1] is 80 nM.

`Cc1[nH]c2c(c(=O)c1-c1ccc(Oc3ccc(Cl)c(Cl)c3)cc1)CCCC2` [JAG084, 3-(4-(3,4-Dichlorophenoxy)phenyl)-2-methyl-5,6,7,8-tetrahydroquinolin-4(1H)-one]: the IC50 in assay [1] was 40 to 80 nM. Take `CCC1CCc2c([nH]c(C)c(-c3ccc(Oc4ccc(OC(F)(F)F)cc4)cc3)c2=O)C1` (stereo not drawn) [JAG121, 7-Ethyl-2-methyl-3(4-(4-trifluoromethoxyphenoxy)phenyl)-5,6,7,8-tetrahydroquinolin-4(1H)-one]: the IC50 in assay [1] stood at 100 nM.

Regarding `Cc1[nH]c2c(c(=O)c1-c1ccc(Oc3ccc(F)cc3)cc1)CCCC2` [JAG58, 3-(4-(4-fluorophenoxy)phenyl)-2-methyl-5,6,7,8-tetrahydroquinolin-4(1H)-one], the IC50 in assay [1] was in the range of 40 to 80 nM. Still for that read-out and setting: with `Cc1[nH]c2c(c(=O)c1-c1ccc(Oc3ccc(OC(F)(F)F)cc3)cc1)CC(C)CC2` (stereo not drawn) [JAG106, 3(4-(4-Trifluoromethoxyphenoxy)phenyl)-2,6-dimethyl-5,6,7,8-tetrahydroquinolin-4(1H)-one] the figure was about 1000 nM; with `Cc1[nH]c2cnccc2c(=O)c1-c1ccc(Oc2ccc(OC(F)(F)F)cc2)cc1` [JAG129, 3(4-(4-trifluoromethoxyphenoxy)phenyl)-2-methyl-1,7-napthyrid-4(1H)-one], 100 nM; with `Cc1c(-c2ccc(Oc3ccc(OC(F)(F)F)cc3)cc2)c(=O)c2c(n1C)CCCC2` [JAG023, 1,2-dimethyl-3-(4-(4-(trifluoromethoxy)phenoxy)phenyl)-5,6,7,8-tetrahydroquinolin-4(1H)-one], 1000 nM.

`Cc1[nH]c2c(c(=O)c1-c1ccc(Oc3ccc(C(F)(F)F)cc3)cc1)CCCC2` [JAG63, 2-methyl-3-(4-(4-(trifluoromethyl)phenoxy)phenyl)-5,6,7,8-tetrahydroquinolin-4(1H)-one]: in assay [1], the IC50 lay in the range of 100 to 300 nM. `Cc1[nH]c2ccccc2c(=O)c1-c1ccc(Oc2ccccc2)cc1` [MJM129, 2-methyl-3-(4-phenoxyphenyl)quinolin-4(1H)-one]: the IC50 in assay [2] (setting [4]) came out at 10 nM; in assay [2] (setting [5]), 30 nM; in assay [2] (setting [6]), 70 nM; in assay [2] (setting [7]), 80 nM. Take `Cc1[nH]c2c(c(=O)c1-c1ccc(Oc3cccc(C(=O)O)c3)cc1)CCCC2` [JAG047, 3-(4-(2-methyl-4-oxo-1,4,5,6,7,8-hexahydroquinolin-3-yl)phenoxy)benzoic acid]: the IC50 in assay [2] (setting [3]) came to 3750 nM.

In the case of `Cc1[nH]c2ccccc2c(=O)c1-c1ccc(Oc2ccc(Cl)cc2)c(O)c1` [RG38, 3-(4-(4-chlorophenoxy)-3-hydroxyphenyl)-2-methylquinolin-4(1H)-one], the IC50 in assay [2] (D6 strain, read-out: SYBR Green D6 IC50) was 2880 nM; in assay [2] (setting [4]) it was over 20000 nM; in assay [2] (setting [5]), 2840 nM; in assay [2] (setting [6]), 13700 nM; in assay [2] (setting [7]), 9240 nM. `Cc1[nH]c2c(c(=O)c1-c1ccc(Oc3ccc(C(=O)O)cc3)nc1)CCCC2` [JAG039, 4-((5-(2-methyl-4-oxo-1,4,5,6,7,8-hexahydroquinolin-3-yl)pyridin-2-yl)oxy)benzoic acid]: the IC50 was over 20000 nM in assay [2] (setting [4]); 9600 nM in assay [2] (setting [3]); 9600 nM in assay [2] (setting [5]); over 20000 nM in assay [2] (setting [6]); over 20000 nM in assay [2] (setting [7]).

In the case of `CCn1c(C)c(-c2ccc(Oc3ccccc3)cc2)c(=O)c2ccccc21` [JM10, 1-ethyl-2-methyl-3-(4-phenoxyphenyl)quinolin-4(1H)-one], the IC50 in assay [2] (setting [4]) was found to be 6750 nM; in assay [2] (setting [5]) it was 880 nM; in assay [2] (setting [6]), 4480 nM; in assay [2] (setting [7]), 5360 nM.
